Measurements: ChEMBL document CHEMBL1122041, “Molecular structures of 2,4-diaminopyrimidine antifolates with antineoplastic activity” (J Med Chem, 1982)
pIC50, pKi: −log10 of the molar value.

Columns and labels:
TA3 [1] = experiment: Evaluated for the concentration needed for 50% growth inhibition of mouse mammary adenocarcinoma cells (TA3) in culture; format: functional; conditions: TA3, read-out: ID50
TA3 [2] = experiment: Evaluated for the concentration needed for 50% growth inhibition of mouse mammary adenocarcinoma cells (TA3) in culture.; format: functional; conditions: TA3, read-out: ID50
Dihydrofolate reductase [3] = molecular target: T1, Dihydrofolate reductase (Homo sapiens, UniProt P00374); experiment: Competitive inhibition of mammalian dihydrofolate reductase
T1 sequence (P00374 whole entry): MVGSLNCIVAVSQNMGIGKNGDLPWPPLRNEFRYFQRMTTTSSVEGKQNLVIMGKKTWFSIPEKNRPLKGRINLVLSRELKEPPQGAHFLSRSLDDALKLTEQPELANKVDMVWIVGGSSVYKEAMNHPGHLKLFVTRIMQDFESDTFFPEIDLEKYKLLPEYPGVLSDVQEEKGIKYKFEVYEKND

Dihydrofolate reductase [4] = molecular target: T1, Dihydrofolate reductase; experiment: Noncompetitive inhibition of mammalian Dihydrofolate reductase

| Structure (SMILES) | pIC50 (TA3 [1]) | pIC50 (TA3 [2]) | also measured |
| --- | --- | --- | --- |
| CN(Cc1cnc2nc(N)nc(N)c2n1)c1ccc(C(=O)N[C@@H](CCC(=O)O)C(=O)O)cc1 [METHOTREXATE] | 8.10 | – | – |
| Cc1nc(N)nc(N)c1C12CC3CC(CC(C3)C1)C2 | – | 8.22 | – |
| Cc1nc(N)nc(N)c1NC(=O)C12CC3CC(CC(C3)C1)C2 | – | – | pKi (Dihydrofolate reductase [3]): 8.05 |
| CCc1nc(N)nc(N)c1C12CC3CC(CC(C3)C1)C2 | – | 9.60 | – |
| Cc1nc(N)nc(N)c1-c1cccc2ccccc12 | – | – | pKi (Dihydrofolate reductase [4]): 4.25 |
| Cc1nc(N)nc(N)c1-c1ccc2ccccc2c1 | 7.15 | – | – |
